“Also recorded” adds a separate entry of the source.
Assays:
SARS-CoV-2 replicon = format: cell-based
LR7 cells = experiment: MTS-based cell viability assay in LR7 cells; design: species or system mouse; details: 50 μM, uninfected LR7 cells
Experimental: LR7, LLC-Mk2 or Vero cells were seeded in 96-well plates and cultured overnight. Next, the medium was changed to a new one supplemented with different concentrations (in triplicate) of analyzed compounds. Following the 2 days (LR7 and Vero) or 4 days (LLC-Mk-2) of incubation, CellTiter 96 AQueous nonradioactive cell proliferation assay (Promega) was performed according to the manufacturer’s instruction. The half-maximal cytotoxic concentration (CC50) was calculated as the concentration of a compound needed to reduce cell viability by 50% using GraphPad Prism software (version 5.01, GraphPad Software, San Diego, CA).

[1] = system: human coronavirus strain NL63 (HCoV-NL63); experiment: HCoV-NL63 N protein expression in LLC-Mk2 cells, Western blot and densitometry; format: cell-based; details: 50 μM, MOI 0.01, 4 days p.i., Western blot/densitometry
Experimental: LLC-Mk2 monolayers grown in 24-well plates were infected with HCoV-NL63 at an MOI value of 0.01 for 2 h. Unbound virus was removed, and cells were cultured in medium supplemented with different concentrations of compounds. Four days postinfection, cells were collected and lysed in CellLyticM Cell Lysis Reagent (Sigma). Following the protein separation by SDS-PAGE and transfer to PVDF membranes, proteins were immunoblotted using specific mouse anti-N NL63 Abs (Eurofins, Spain) or rabbit anti-β-catenin Abs (Santa Cruz), followed by antimouse or antirabbit secondary antibodies conjugated with HRP. Proteins were visualized and analyzed by chemiluminescence using the UVITEC Cambridge Alliance MINI HD detection system. The densitometric analysis of cells treated with 50 μM dose of a panel of glycoconjugates was performed based on three biological replicates of N and β-catenin immunoblots. The N protein levels were expressed as a percentage relative to DMSO-treated infected cells, while β-catenin levels were expressed as a percentage relative to noninfected control cells. The data were presented as the ratio of N/β-catenin for each sample, normalized accordingly.

[2] = system: murine hepatitis virus strain A59 (MHV); experiment: Reduction of MHV cytopathic effect (CPE) in LR7 cells, MTS/PMS readout; format: cell-based; details: 50 μM, MOI 0.01, 24 h
Experimental: LR7 cells were seeded in a 96-well plate and cultured overnight. Next, the cells were infected with MHV at an MOI value of 0.01 in medium without FBS. Following 1 h of incubation, the medium containing the virus was collected and cells were covered with a medium supplemented with different concentrations (in triplicate) of the analyzed compounds or DMSO. 24 h p.i. cells viability was evaluated by CellTiter 96 AQueous nonradioactive cell proliferation assay (Promega) according to the manufacturer’s instruction.

SMILES	inhibition of SARS-CoV-2 replication (replicon) (SARS-CoV-2 replicon)	reduction of cell viability (cytotoxicity in uninfected cells) (LR7 cells)	HCoV-NL63 N protein level [1]	protection against MHV-induced CPE [2]
CC(C)(C)[C@H](NC(=O)C(F)(F)F)C(=O)N1C[C@H]2[C@@H]([C@H]1C(=O)N[C@H](C#N)C[C@@H]1CCNC1=O)C2(C)C [nirmatrelvir, reference compound]	inhibited SARS-CoV-2 replication	–	–	–
CC(=O)OC[C@H]1O[C@@H](OCCn2cc(CNC(=O)[C@H]3O[C@@H](n4ccc(=O)[nH]c4=O)[C@H](O[Si](C)(C)C(C)(C)C)[C@@H]3O[Si](C)(C)C(C)(C)C)nn2)[C@H](OC(C)=O)[C@@H](OC(C)=O)[C@H]1OC(C)=O [Compound 17, N-Uracil [(1-(2″, 3″, 4″, 6″-tetra-O-Acetyl-β-D-galactopyranosyloxyethyl)-1,2-3-triazol-4-yl)-methyl]-1′-deoxy-2′,3′-di-O-tert-butyldimethylsilyl-β-D-ribofuranuronamide]	–	10–30%	No significant reduction	–
CC(=O)OC[C@H]1O[C@@H](SCn2cc(CNC(=O)[C@H]3O[C@@H](n4ccc(=O)[nH]c4=O)[C@H](O[Si](C)(C)C(C)(C)C)[C@@H]3O[Si](C)(C)C(C)(C)C)nn2)[C@H](OC(C)=O)[C@@H](OC(C)=O)[C@@H]1OC(C)=O [Compound 22, N-Uracil [(1-(2″,3″,4″,6″-tetra-O-Acetyl-β-D-glucopyranosylthiomethyl)-1,2-3-triazol-4-yl)-methyl]-1′-deoxy-2′,3′-di-O-tert-butyldimethylsilyl-β-D-ribofuranuronamide]	–	no detectable toxicity	No significant reduction	significantly reduced cell death
CC(=O)OC[C@H]1O[C@@H](OCc2cn(C[C@H]3O[C@@H](n4ccc(=O)[nH]c4=O)[C@H](O[Si](C)(C)C(C)(C)C)[C@@H]3O[Si](C)(C)C(C)(C)C)nn2)[C@H](OC(C)=O)[C@@H](OC(C)=O)[C@@H]1OC(C)=O [Compound 14, 2′,3′-di-O-tert-Butyldimethylsilyl-5′-deoxy-5′-[4-(2″,3″,4″,6″-tetra-O-acetyl-β-D-glucopyranosyloxymethyl)-1,2-3-triazol-1-yl]-uridine]	–	10–30%	significantly reduced; also recorded: weaker activity against HCoV-NL63	significantly reduced cell death
CC(=O)OC[C@H]1O[C@@H](OCCn2cc(CNC(=O)[C@H]3O[C@@H](n4ccc(=O)[nH]c4=O)[C@H](O[Si](C)(C)C(C)(C)C)[C@@H]3O[Si](C)(C)C(C)(C)C)nn2)[C@H](OC(C)=O)[C@@H](OC(C)=O)[C@@H]1OC(C)=O [Compound 16, N-Uracil [(1-(2″,3″,4″,6″-tetra-O-Acetyl-β-D-glucopyranosyloxyethyl)-1,2-3-triazol-4-yl)-methyl]-1′-deoxy-2′,3′-di-O-tert-butyldimethylsilyl-β-D-ribofuranuronamide]	–	10–30%	No significant reduction	–
CC(=O)OC[C@H]1O[C@@H](NC(=O)Cn2cc(CNC(=O)[C@H]3O[C@@H](n4ccc(=O)[nH]c4=O)[C@H](O[Si](C)(C)C(C)(C)C)[C@@H]3O[Si](C)(C)C(C)(C)C)nn2)[C@H](OC(C)=O)[C@@H](OC(C)=O)[C@H]1OC(C)=O [Compound 19, N-Uracil [((1-(2-oxo-(2″,3″,4″,6″-tetra-O-Acetyl-β-D-galactopyranosyl)-amino)-ethyl)-1,2-3-triazol-4-yl)-methyl]-1′-deoxy-2′,3′-di-O-tert-butyldimethylsilyl-β-D-ribofuranuronamide]	–	10–30%	No significant reduction	limited anti-MHV activity
CC(=O)OC[C@H]1O[C@@H](SCn2cc(CNC(=O)[C@H]3O[C@@H](n4ccc(=O)[nH]c4=O)[C@H](O[Si](C)(C)C(C)(C)C)[C@@H]3O[Si](C)(C)C(C)(C)C)nn2)[C@H](OC(C)=O)[C@@H](OC(C)=O)[C@H]1OC(C)=O [Compound 23, N-Uracil [(1-(2″,3″,4″,6″-tetra-O-Acetyl-β-D-galactopyranosylthiomethyl)-1,2-3-triazol-4-yl)-methyl]-1′-deoxy-2′,3′-di-O-tert-butyldimethylsilyl-β-D-ribofuranuronamide]	–	10–30%	No significant reduction	–
CC(=O)OC[C@H]1O[C@@H](SCn2cc(COC[C@H]3O[C@@H](n4ccc(=O)[nH]c4=O)[C@H](O[Si](C)(C)C(C)(C)C)[C@@H]3O[Si](C)(C)C(C)(C)C)nn2)[C@H](OC(C)=O)[C@@H](OC(C)=O)[C@H]1OC(C)=O [Compound 25, 2′,3′-di-O-tert-Butyldimethylsilyl-5′-O-[(1-(2″,3″,4″,6″-tetra-O-acetyl-β-D-galactopyranosylthiomethyl)-1,2-3-triazol-4-yl)-methyl]-uridine]	–	–	significantly reduced; also recorded: No N protein was detected	lower activity against MHV
CC(=O)OC[C@H]1O[C@@H](NC(=O)Cn2cc(CNC(=O)[C@H]3O[C@@H](n4ccc(=O)[nH]c4=O)[C@H](O[Si](C)(C)C(C)(C)C)[C@@H]3O[Si](C)(C)C(C)(C)C)nn2)[C@H](OC(C)=O)[C@@H](OC(C)=O)[C@@H]1OC(C)=O [Compound 18, N-Uracil [((1-(2-oxo-(2″,3″,4″,6″-tetra-O-Acetyl-β-D-glucopyranosyl)-amino)-ethyl)-1,2-3-triazol-4-yl)-methyl]-1′-deoxy-2′,3′-di-O-tert-butyldimethylsilyl-β-D-ribofuranuronamide]	–	10–30%	No significant reduction	limited anti-MHV activity
